Data reported in patent US7285572B2, “CaSR antagonist” (Japan Tobacco Inc., priority 2003, dated 2007).

What was measured:
human calcium receptor = target: T1, human calcium receptor (Homo sapiens, UniProt P41180); test: Evaluation of antagonistic action on calcium receptor using reporter gene (luciferase); assay type: cell-based; conditions: rat adrenal derived cells with luciferase and human calcium receptor cDNA, 5 mM calcium chloride, 4 hrs; read-out: IC50 (concentration showing 50% inhibitory rate of luciferase activity)
T1 construct: expressed in transfected cells; host or cells: cell strain derived from rat adrenal, co-transfected with luciferase cDNA
T1 sequence (P41180 20-1078): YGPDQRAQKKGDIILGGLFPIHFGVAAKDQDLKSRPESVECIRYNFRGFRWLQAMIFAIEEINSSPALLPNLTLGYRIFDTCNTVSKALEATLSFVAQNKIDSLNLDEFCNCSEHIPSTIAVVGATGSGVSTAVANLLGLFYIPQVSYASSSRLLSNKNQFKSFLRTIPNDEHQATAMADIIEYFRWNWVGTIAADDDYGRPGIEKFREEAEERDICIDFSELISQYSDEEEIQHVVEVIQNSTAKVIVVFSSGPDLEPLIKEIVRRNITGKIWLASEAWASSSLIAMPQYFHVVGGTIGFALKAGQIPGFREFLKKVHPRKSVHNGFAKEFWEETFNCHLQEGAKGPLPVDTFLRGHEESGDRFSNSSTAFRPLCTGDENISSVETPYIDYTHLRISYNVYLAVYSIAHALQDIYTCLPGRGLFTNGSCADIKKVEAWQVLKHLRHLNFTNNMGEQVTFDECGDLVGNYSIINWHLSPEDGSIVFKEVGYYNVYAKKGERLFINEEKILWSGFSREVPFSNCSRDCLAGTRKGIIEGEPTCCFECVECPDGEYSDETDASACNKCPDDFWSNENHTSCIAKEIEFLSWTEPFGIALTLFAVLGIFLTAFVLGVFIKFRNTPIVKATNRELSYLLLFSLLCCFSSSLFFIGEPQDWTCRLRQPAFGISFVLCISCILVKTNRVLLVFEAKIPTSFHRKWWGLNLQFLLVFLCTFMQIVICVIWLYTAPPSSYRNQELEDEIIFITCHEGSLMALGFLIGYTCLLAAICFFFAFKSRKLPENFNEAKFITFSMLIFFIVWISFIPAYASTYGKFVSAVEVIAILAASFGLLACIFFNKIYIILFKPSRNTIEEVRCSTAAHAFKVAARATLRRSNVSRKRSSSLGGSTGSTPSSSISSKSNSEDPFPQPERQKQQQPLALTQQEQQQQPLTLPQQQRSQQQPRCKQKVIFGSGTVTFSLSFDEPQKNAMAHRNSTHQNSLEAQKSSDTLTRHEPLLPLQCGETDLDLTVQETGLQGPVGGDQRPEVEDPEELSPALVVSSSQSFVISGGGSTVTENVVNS
Protocol: Evaluation of Antagonistic Action on Calcium Receptor Using Reporter Gene
Luciferase cDNA and human calcium receptor cDNA were introduced into a cell strain derived from rat adrenal to transform the cells, and the transformed cells were cultured in a medium (80 μl, F12 medium containing 0.5% dialyzed horse serum and 0.25% dialyzed bovine fetal serum). A dimethyl sulfoxide solution containing a test compound at 0.1-10000 μM was diluted 100-fold with the medium and added to the test compound group at 10 μl per well (final concentration of dimethyl sulfoxide is 0.1%). In the same manner as in test compound group, dimethyl sulfoxide diluted 100-fold with medium was added to a control group and a blank group. Then, 50 mM calcium chloride-containing medium was added to every well except the blank group at 10 μl per well (final concentration is 5 mM). A medium alone was added to the blank group. After culture for 4 hrs, luciferase substrate was added and the luciferase activity was measured with a photoluminometer. The inhibitory rate (%) was calculated from the obtained measured values according to the following formula.
Based on the results, the concentration (IC50) showing 50% inhibitory rate was determined.

CYP2D6 = target: T2, CYP2D6 (Homo sapiens, UniProt P10635); test: Metabolic enzyme CYP2D6 inhibitory activity (BD Bioscience kit); assay type: in vitro ADME; conditions: enzyme activity free of test compound as 100%; read-out: CYP2D6 IC50 (concentration showing 50% inhibition)
T2 construct: purchased BD Bioscience
T2 sequence (P10635 whole entry): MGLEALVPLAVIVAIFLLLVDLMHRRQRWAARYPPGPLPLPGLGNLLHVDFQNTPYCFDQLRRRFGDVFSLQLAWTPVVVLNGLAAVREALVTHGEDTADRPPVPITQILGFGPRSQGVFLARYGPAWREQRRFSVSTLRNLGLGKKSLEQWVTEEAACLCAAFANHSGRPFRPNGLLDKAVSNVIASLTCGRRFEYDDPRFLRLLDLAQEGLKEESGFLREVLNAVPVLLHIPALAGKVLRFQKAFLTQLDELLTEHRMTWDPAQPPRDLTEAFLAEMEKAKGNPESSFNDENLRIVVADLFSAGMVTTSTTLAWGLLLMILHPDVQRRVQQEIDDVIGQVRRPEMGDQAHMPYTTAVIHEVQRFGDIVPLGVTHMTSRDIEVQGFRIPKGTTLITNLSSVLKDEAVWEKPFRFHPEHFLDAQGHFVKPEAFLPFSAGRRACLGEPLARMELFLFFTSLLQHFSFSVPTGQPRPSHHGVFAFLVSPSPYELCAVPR
Protocol: Metabolic Enzyme CYP2D6 Inhibitory Activity
Using a metabolic enzyme CYP2D6 inhibition measurement kit (BD Bioscience) and following the manual of the kit, the inhibitory activity of the test compound was measured. With the enzyme activity free of the test compound as 100%, the concentration (IC50) showing 50% inhibition was determined. The results are shown in Table 8, wherein “>10” means over 10 μM.

PTH secretion [1] = test: PTH secretagogue action, oral administration to fasted male SD rats, serum PTH by ELISA; assay type: in vivo, rat; conditions: 3 mg/kg oral, test compound administration group
Protocol: The test compound was orally administered to 5 to 9-week-old male SD rats (Charles River Japan, Inc.) fasted for 20 hr, using a solvent (0.5% aqueous methyl cellulose solution) at a dose of 3 mg/5 ml/kg or 30 mg/5 ml/kg. A solvent alone was orally administered to the control group at a dose of 5 ml/kg. The blood was drawn from the tail vein 15 min, 30 min, 60 min and 120 min after the administration of the test compound, and serum was obtained. The serum PTH concentration was measured using rat PTH ELISA kit (Amersham Biosciences).

PTH secretion [2] = test: Reproductive test of NPS-2143 of the reference (PTH secretion); assay type: in vivo
PTH release = conditions: cited from earlier work
[3] = tested on: osteoblast and osteoclast; conditions: in vitro; cited from earlier work

Compound: C[C@@H](OC[C@H](O)CNC(C)(C)Cc1ccc2ccccc2c1)c1ccccc1-c1ccc(P(=O)(O)O)cc1 [Example 12, Disodium [2′-[(1R)-1-[(2R)-2-hydroxy-3-[[2-methyl-1-(naphthalen-2-yl)propan-2-yl]amino]propoxy]ethyl]biphenyl-4-yl]phosphonate]
- IC50 (human calcium receptor): 29 nM
- IC50 (CYP2D6): > 10000 nM

Compound: C[C@@H](OC[C@H](O)CNC(C)(C)Cc1ccc2ccccc2c1)c1ccccc1CCC(=O)O [Example 1, 3-[2-[(1R)-1-[(2R)-2-hydroxy-3-[[2-methyl-1-(naphthalen-2-yl)propan-2-yl]amino]propoxy]ethyl]phenyl]propionic acid]
- IC50 (human calcium receptor): 25 nM
- serum PTH concentration 15 min later (PTH secretion [1]): 24.86 ± 3.59 pg/mL
- serum PTH concentration 30 min later (PTH secretion [1]): 18.58 ± 2.15 pg/mL
- IC50 (CYP2D6): 9500 nM

Compound: CC(C)(Cc1ccc2ccccc2c1)NC[C@@H](O)COc1cccc(Cl)c1C#N [NPS-2143]
- PTH secretion promoting action (duration) (PTH secretion [2]): sustained PTH secretion promoting action
- blood concentration of NPS-2143 8 hours after the administration (PTH release; 100 μmol/kg, OVX rat): not less than 100 ng/ml
- blood concentration of NPS-2143 24 hours later (PTH release; 100 μmol/kg, OVX rat): ≤ 10 ng/mL
- blood PTH concentration 4 hours later (PTH release; NPS-2143 100 μmol/kg, OVX rat): about 140 pg/ml
- blood PTH concentration in 30 minutes (PTH release; NPS-2143 100 μmol/kg, OVX rat): about 115 pg/ml
- bone decrease or bone increase (PTH release; oral, OVX rats): free of bone decrease or bone increase
- release of PTH (PTH release; oral, OVX rats): significantly promotes release of PTH
- direct effect on osteoblast and osteoclast [3]: did not show any direct effect
